Where “and” joins values, the source holds several entries; their conditions need not be identical. Equal values may be shown once.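 1) Cells in 96-well plates. 2) Compound, 48 h, 5 concentrations. 3) Linear interpolation between surrounding doses. 4) Unreached endpoint = highest concentration. GI50 marks 50% less growth. TGI is the concentration that stops growth completely.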
Tests used:
Assay in all cases: inhibition of tumour cell growth, NCI panel, 48 h
NCI/ADR-RES ovarian = test system: NCI/ADR-RES ovarian
HCC-2998 colon = test system: HCC-2998 colon
LOX IMVI melanoma = test system: LOX IMVI melanoma
M14 melanoma = test system: M14 melanoma
SF-268 CNS = test system: SF-268 CNS
SNB-19 CNS = test system: SNB-19 CNS
CAKI-1 renal = test system: CAKI-1 renal
MALME-3M melanoma = test system: MALME-3M melanoma
NCI-H23 lung = test system: NCI-H23 lung
HS 578T breast = test system: HS 578T breast
MCF7 breast = test system: MCF7 breast
TK-10 renal = test system: TK-10 renal
CCRF-CEM leukemia = test system: CCRF-CEM leukemia
SK-MEL-5 melanoma = test system: SK-MEL-5 melanoma
HT29 colon = test system: HT29 colon
MDA-N = test system: MDA-N
HCT-15 colon = test system: HCT-15 colon
HOP-62 NSCLC = test system: HOP-62 NSCLC
SK-OV-3 ovarian = test system: SK-OV-3 ovarian
NCI-H226 lung = test system: NCI-H226 lung
A498 renal = test system: A498 renal
A549 NSCLC = test system: A549 NSCLC
SK-MEL-28 melanoma = test system: SK-MEL-28 melanoma
MDA-MB-435 = test system: MDA-MB-435
SNB-75 CNS = test system: SNB-75 CNS
OVCAR-8 ovarian = test system: OVCAR-8 ovarian
KM12 colon = test system: KM12 colon
T-47D breast = test system: T-47D breast
UACC-257 melanoma = test system: UACC-257 melanoma
SF-539 CNS = test system: SF-539 CNS
RPMI-8226 leukemia = test system: RPMI-8226 leukemia
HCT-116 colon = test system: HCT-116 colon
HOP-92 NSCLC = test system: HOP-92 NSCLC
DU-145 prostate = test system: DU-145 prostate
PC-3 prostate = test system: PC-3 prostate
NCI-H460 lung = test system: NCI-H460 lung
SW-620 colon = test system: SW-620 colon
OVCAR-5 ovarian = test system: OVCAR-5 ovarian
EKVX NSCLC = test system: EKVX NSCLC
MDA-MB-231 breast = test system: MDA-MB-231 breast
OVCAR-3 ovarian = test system: OVCAR-3 ovarian
SF-295 CNS = test system: SF-295 CNS
HL-60(TB) leukemia = test system: HL-60(TB) leukemia
RXF 393 renal = test system: RXF 393 renal
U251 CNS = test system: U251 CNS
NCI-H522 lung = test system: NCI-H522 lung
786-0 renal = test system: 786-0 renal
ACHN renal = test system: ACHN renal
COLO 205 colon = test system: COLO 205 colon
OVCAR-4 ovarian = test system: OVCAR-4 ovarian
SK-MEL-2 melanoma = test system: SK-MEL-2 melanoma
K-562 leukemia = test system: K-562 leukemia
SN12C renal = test system: SN12C renal
UACC-62 melanoma = test system: UACC-62 melanoma
UO-31 renal = test system: UO-31 renal
IGROV1 ovarian = test system: IGROV1 ovarian
SR leukemia = test system: SR leukemia
MOLT-4 leukemia = test system: MOLT-4 leukemia

For `Cn1cnc(C(=N)[Se])c1N`, the TGI (NCI/ADR-RES ovarian) was 3.15 µM, the TGI (HCC-2998 colon) was > 100 µM and the TGI (LOX IMVI melanoma) was > 100 µM. The TGI (M14 melanoma) was > 100 µM, the TGI (SF-268 CNS) was 4.94 µM and the TGI (SNB-19 CNS) was > 28 µM. For the same compound, the TGI (CAKI-1 renal) was 60.9 µM, the TGI (MALME-3M melanoma) was 8.89 µM and the TGI (NCI-H23 lung) was > 27.1 µM. For the same compound, the TGI (HS 578T breast) was > 26.4 µM, the TGI (MCF7 breast) was > 29.3 µM and the TGI (TK-10 renal) was > 24.8 µM. For the same compound, the TGI (CCRF-CEM leukemia) was 6.26 µM, the TGI (SK-MEL-5 melanoma) was > 100 µM and the TGI (HT29 colon) was > 100 µM. The TGI (MDA-N) was > 100 µM, the TGI (HCT-15 colon) was > 100 µM and the TGI (HOP-62 NSCLC) was > 23.4 µM. For the same compound, the TGI (SK-OV-3 ovarian) was 2.3 µM, the TGI (NCI-H226 lung) was 12.5 µM and the TGI (A498 renal) was > 28.6 µM. For the same compound, the TGI (A549 NSCLC) was > 100 µM, the TGI (SK-MEL-28 melanoma) was > 100 µM and the TGI (MDA-MB-435) was > 100 µM. The TGI (SNB-75 CNS) was 4.38 µM, the TGI (OVCAR-8 ovarian) was 3.31 µM and the TGI (KM12 colon) was > 28.8 µM. The TGI (T-47D breast) was > 100 µM, the TGI (UACC-257 melanoma) was > 100 µM and the TGI (SF-539 CNS) was 4.18 µM. For the same compound, the TGI (RPMI-8226 leukemia) was 6.95 µM, the TGI (HCT-116 colon) was > 100 µM and the TGI (HOP-92 NSCLC) was > 100 µM. The TGI (DU-145 prostate) was > 100 µM, the TGI (PC-3 prostate) was 14.9 µM and the TGI (NCI-H460 lung) was 1.55 µM. For the same compound, the TGI (SW-620 colon) was > 100 µM and the TGI (OVCAR-5 ovarian) was > 100 µM.

For `CCCCCCCCCC[C@H](O)[C@H]1CC[C@@H]([C@@H](O)CC[C@H](O)[C@@H]2CCC(CCCCCCC[C@@H](O)CC3=C[C@H](C)OC3=O)O2)O1` (some centres undefined), the GI50 (EKVX NSCLC) was 5.17 µM, the TGI (EKVX NSCLC) was 6.86 µM and 22.4 µM and the GI50 (NCI/ADR-RES ovarian) was 2.63 µM. For the same compound, the TGI (NCI/ADR-RES ovarian) was 4.08 µM and 19.6 µM, the TGI (HCC-2998 colon) was 19 µM and the GI50 (LOX IMVI melanoma) was 0.0764 µM. The TGI (LOX IMVI melanoma) was 2.18 µM and 10 µM, the TGI (MDA-MB-231 breast) was 7.03 µM and 44.2 µM and the GI50 (M14 melanoma) was 2.73 µM. The TGI (M14 melanoma) was 2.93 µM and 9.75 µM, the GI50 (SF-268 CNS) was 8.17 µM and the TGI (SNB-19 CNS) was 4.71 µM and 19.6 µM. The GI50 (OVCAR-3 ovarian) was 3.29 µM, the TGI (OVCAR-3 ovarian) was 2.75 µM and 14.2 µM and the GI50 (CAKI-1 renal) was 5.26 µM. For the same compound, the TGI (CAKI-1 renal) was 23.8 µM, the TGI (MALME-3M melanoma) was 12.3 µM and the TGI (NCI-H23 lung) was 3.68 µM and 19.2 µM. It also gave a GI50 (SF-295 CNS) of 1.22 µM, a TGI (SF-295 CNS) of 15 µM and a TGI (HS 578T breast) of 4.86 µM. The TGI (HL-60(TB) leukemia) was 4.95 µM, the TGI (RXF 393 renal) was 19.8 µM and the GI50 (MCF7 breast) was 3 µM. For the same compound, the TGI (MCF7 breast) was 9.6 µM and 22.9 µM, the GI50 (TK-10 renal) was 4.26 µM and the TGI (TK-10 renal) was 20.9 µM. For the same compound, the GI50 (U251 CNS) was 8.25 µM, the TGI (NCI-H522 lung) was 18 µM and the GI50 (CCRF-CEM leukemia) was 2.08 µM. For the same compound, the TGI (CCRF-CEM leukemia) was 12.3 µM, the TGI (SK-MEL-5 melanoma) was 3.48 µM and 3.24 µM and the TGI (HT29 colon) was 3.5 µM. The GI50 (MDA-N) was 2.1 µM, the TGI (MDA-N) was 16 µM and the GI50 (HCT-15 colon) was 7.02 µM. The TGI (HCT-15 colon) was 30.8 µM, the GI50 (HOP-62 NSCLC) was 4.55 µM and the TGI (HOP-62 NSCLC) was 3.28 µM and 19.4 µM. For the same compound, the GI50 (786-0 renal) was 4.9 µM, the TGI (786-0 renal) was 3.64 µM and 20.7 µM and the GI50 (NCI-H226 lung) was 8.54 µM. The TGI (NCI-H226 lung) was 6.43 µM and 36 µM, the GI50 (ACHN renal) was 2.15 µM and the TGI (ACHN renal) was 4.47 µM and 15.7 µM. The TGI (COLO 205 colon) was 4.38 µM and 6 µM, the GI50 (A549 NSCLC) was 2.89 µM and the TGI (A549 NSCLC) was 18.5 µM. For the same compound, the GI50 (SK-MEL-28 melanoma) was 7.62 µM, the TGI (SK-MEL-28 melanoma) was 5.44 µM and 39 µM and the TGI (OVCAR-4 ovarian) was 19.6 µM. The GI50 (MDA-MB-435) was 5.07 µM, the GI50 (SNB-75 CNS) was 9.29 µM and the TGI (SNB-75 CNS) was 9.56 µM and 28.1 µM. The GI50 (OVCAR-8 ovarian) was 4.09 µM, the GI50 (KM12 colon) was 4.25 µM and the GI50 (T-47D breast) was 1.87 µM. The TGI (T-47D breast) was 17.6 µM, the GI50 (SK-MEL-2 melanoma) was 8.82 µM and the TGI (SK-MEL-2 melanoma) was 2.94 µM and 24.6 µM. For the same compound, the GI50 (UACC-257 melanoma) was 0.921 µM, the TGI (UACC-257 melanoma) was 4.47 µM and 13.8 µM and the GI50 (SF-539 CNS) was 4.33 µM. The TGI (SF-539 CNS) was 3.86 µM and 25.8 µM, the TGI (RPMI-8226 leukemia) was 4.03 µM and the TGI (K-562 leukemia) was 19.2 µM. The GI50 (SN12C renal) was 8.18 µM, the TGI (SN12C renal) was 8.23 µM and 30.6 µM and the TGI (UACC-62 melanoma) was 3.13 µM. For the same compound, the GI50 (HCT-116 colon) was 0.507 µM, the TGI (HCT-116 colon) was 2.65 µM and 20.7 µM and the GI50 (HOP-92 NSCLC) was 1.99 µM. The TGI (HOP-92 NSCLC) was 4.34 µM and 16 µM, the GI50 (PC-3 prostate) was 4.66 µM and the TGI (PC-3 prostate) was 3.44 µM and 17.2 µM. The GI50 (NCI-H460 lung) was 1.15 µM, the TGI (NCI-H460 lung) was 17.2 µM and the GI50 (UO-31 renal) was 2.59 µM. For the same compound, the TGI (UO-31 renal) was 2.13 µM and 10.9 µM, the GI50 (SW-620 colon) was 4.8 µM and the GI50 (IGROV1 ovarian) was 5.17 µM. The TGI (IGROV1 ovarian) was 4.99 µM and 21.1 µM, the GI50 (OVCAR-5 ovarian) was 12 µM and the TGI (OVCAR-5 ovarian) was 28.4 µM.

`O=C1OC(c2ccccc2Br)=N/C1=C/c1ccccc1` was tested, and the TGI (EKVX NSCLC) was > 100 µM, the TGI (HCC-2998 colon) was 39.4 µM and the TGI (LOX IMVI melanoma) was 38.8 µM. The TGI (MDA-MB-231 breast) was 89.8 µM, the TGI (SR leukemia) was > 100 µM and the TGI (M14 melanoma) was 41.1 µM. For the same compound, the TGI (SF-268 CNS) was > 100 µM, the TGI (SNB-19 CNS) was 96.8 µM and the TGI (OVCAR-3 ovarian) was 35.4 µM. For the same compound, the TGI (CAKI-1 renal) was > 100 µM, the TGI (MALME-3M melanoma) was 45.5 µM and the TGI (NCI-H23 lung) was > 100 µM. The TGI (SF-295 CNS) was > 100 µM, the TGI (HS 578T breast) was > 100 µM and the TGI (HL-60(TB) leukemia) was > 100 µM. For the same compound, the TGI (MCF7 breast) was > 100 µM, the TGI (TK-10 renal) was > 100 µM and the TGI (MOLT-4 leukemia) was > 100 µM. For the same compound, the TGI (U251 CNS) was 69.7 µM, the TGI (NCI-H522 lung) was 72.2 µM and the TGI (CCRF-CEM leukemia) was > 100 µM. For the same compound, the TGI (SK-MEL-5 melanoma) was > 100 µM, the TGI (HT29 colon) was > 100 µM and the TGI (MDA-N) was 49.4 µM. For the same compound, the TGI (HCT-15 colon) was > 100 µM, the TGI (HOP-62 NSCLC) was 49.4 µM and the TGI (SK-OV-3 ovarian) was > 100 µM. The TGI (NCI-H226 lung) was 77.9 µM, the TGI (ACHN renal) was 77.5 µM and the TGI (A498 renal) was > 100 µM. For the same compound, the TGI (A549 NSCLC) was > 100 µM, the TGI (SK-MEL-28 melanoma) was > 100 µM and the TGI (OVCAR-4 ovarian) was > 100 µM. For the same compound, the TGI (MDA-MB-435) was 93.7 µM, the TGI (SNB-75 CNS) was > 100 µM and the TGI (OVCAR-8 ovarian) was 59.6 µM. The TGI (KM12 colon) was 34 µM, the TGI (T-47D breast) was > 100 µM and the TGI (SK-MEL-2 melanoma) was 41.7 µM. For the same compound, the TGI (UACC-257 melanoma) was > 100 µM, the TGI (SF-539 CNS) was 37.9 µM and the TGI (RPMI-8226 leukemia) was > 100 µM. The TGI (K-562 leukemia) was > 100 µM, the TGI (UACC-62 melanoma) was > 100 µM and the TGI (HCT-116 colon) was > 100 µM. The TGI (DU-145 prostate) was > 100 µM, the TGI (PC-3 prostate) was > 100 µM and the TGI (NCI-H460 lung) was > 100 µM. For the same compound, the TGI (UO-31 renal) was > 100 µM, the TGI (SW-620 colon) was > 100 µM and the TGI (IGROV1 ovarian) was > 100 µM. For the same compound, the TGI (OVCAR-5 ovarian) was > 100 µM.
